Test results from US12502440B2, “Cross-linking compounds and methods of use thereof” (North Carolina State University, priority 2019, dated 2025).
Where “and” joins values, the source holds several entries; their conditions need not be identical. Equal values may be shown once.

Columns and labels:
[1] = target: T1, β-glucosidase from Agrobacterium sp. (Agrobacterium sp., UniProt P12614); assay: Oligomerization of compound V with β-glucosidase; format: biochemical
T1 construct: purchased Megazyme
T1 sequence (P12614 1-459): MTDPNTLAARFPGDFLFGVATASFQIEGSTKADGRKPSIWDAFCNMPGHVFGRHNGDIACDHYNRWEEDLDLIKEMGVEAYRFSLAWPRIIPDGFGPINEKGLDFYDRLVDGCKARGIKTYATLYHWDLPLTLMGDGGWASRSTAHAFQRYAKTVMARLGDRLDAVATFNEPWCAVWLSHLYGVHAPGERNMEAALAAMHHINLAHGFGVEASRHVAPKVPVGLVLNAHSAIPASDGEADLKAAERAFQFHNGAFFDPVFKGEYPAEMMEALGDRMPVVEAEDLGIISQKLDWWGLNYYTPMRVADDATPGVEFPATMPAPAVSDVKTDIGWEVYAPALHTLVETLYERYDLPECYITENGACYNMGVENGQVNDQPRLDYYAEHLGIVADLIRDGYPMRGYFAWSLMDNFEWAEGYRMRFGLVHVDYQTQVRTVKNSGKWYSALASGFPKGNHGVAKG
Protocol: The oligomerization of compound V was examined by treatment with the enzyme-glucosidase. The reaction mixture contained 50 μM of compound V and 200 nM of β-glucosidase (250-fold ratio). The reaction mixture was only faintly blue but upon centrifugation after 5 h of incubation, a blue precipitate was obtained. According to the colors of samples (FIG. 13, panel A), the yield of precipitate is low by comparison with our previously reported enzyme-substrate pairs (see Example 1). Multiple additions of enzyme (4×0.20 μM of enzyme stock, every 2 h) and longer incubation times (10 h or 24 h) were also tested but no increase in solution intensity or precipitate was observed. For the samples after 300 min of incubation, the precipitates suspended in H2O were screened by optical microscopy (FIG. 13, panel B) and DLS (FIG. 13, panel C). The size of aggregates is between 100 and 1000 nm as measured by DLS, which is consistent with the images obtained by optical microscopy (˜1 μm).
Quantitation of the indigogenic compounds in the precipitate and supernatant was carried out by absorption spectroscopy and multicomponent analysis (MCA) (M. Taniguchi, et al., Photochem. Photobiol., 2018, 94, 277-289) (FIG. 13, panels D and E). MCA analysis is essential due to the overlaid spectra of indigo and coumarin at 362 nm, the peak wavelength for the coumarin. Spectral deconvolution relied on knowledge of the molar absorption coefficient at 362 nm of coumarin (εcou362=2.0×10^4 M^−1 cm^−1, measured in DMF) and indigo model compound F19 (see Example 1 where F-19 is compound 43) shown in Chart 2 (εind362=0.81×10^4 M^−1 cm^−1, measured in DMSO/H2O, v/v=2/1); and the molar absorption coefficient of F19 at 630 nm (εind630=2.6×10^4 M^−1 cm^−1, measured in DMSO/H2O, v/v=2/1). The residual upon MCA was smaller than any of the components, as required for accurate analysis (Y. Zhang, et al., Phytochem. Anal., 2018, 29, 205-216). In this manner, the precipitate is composed of 51.6 nmol of coumarin and 2.8 nmol of indigoid dye; the supernatant is composed of 11.1 nmol of coumarin and 0.3 nmol of indigoid dye.
Materials. DMF (HPLC grade) was purchased from Alfa Aesar. H2O (molecular biology grade) for buffer preparation was purchased from Millipore Sigma. Compound V (5.6 mg) was dissolved in DMF (26 μL) to prepare 100 mM stock solution. Pi buffer was prepared freshly at 10 mM, pH 7. The enzyme β-glucosidase from Agrobacterium sp. was purchased from MegaZyme and was dissolved in Pi buffer at 10 μM to prepare the stock solution.
To screen the oligomerization procedure of compound V, samples of Pi buffer (1859 μL), DMF (100 μL), […]-glucosidase stock (40 μL) and compound V stock (1 μL) were mixed in a 2-mL Eppendorf tube. The resulting mixed sample (2.0 mL) contains 50 μM of compound V as the substrate and 0.20 μM of β-glucosidase as the enzyme. Three identical samples were prepared for different assays. For a control sample, 40 μL of Pi buffer was added as a replacement for the β-glucosidase stock solution. The tubes were incubated at 37° C. for 5 h, and pictures of the tubes were captured at 0, 15, 30, 60, 120, 180 and 300 min. After 300 min, the tubes were centrifuged at 20,000×g for 10 min to isolate any precipitate from the supernatant. No precipitate formed in the control sample.
Three samples were treated differently for three assays: (1) for sample 1, the precipitate was dissolved in 100 μL of DMF for absorption screening; (2) for sample 2, the precipitate was suspended in 100 μL of H2O for microscopic imaging; and (3) for sample 3, the precipitate was suspended in 1000 μL of H2O for dynamic light scattering (DLS) assay. The supernatant of sample 1 was freeze-dried under high vacuum and afterwards dissolved in 100 μL of DMF for absorption screening. The absorption spectra of the precipitates and supernatants were employed for quantitation of indigo and coumarin. […]

[2] = target: T2, β-glucosidase from Agrobacterium plus rat liver homogenate (Agrobacterium sp., UniProt P12614); assay: Reaction of 33 with β-glucosidase from Agrobacterium in rat liver homogenate; format: biochemical; conditions: 33 100 μM, enzyme 200 nM, rat liver homogenate with 2% DMF, 37° C., 4 h; ε measured for 43 (footnotes g,h)
T2 construct: purchased Megazyme
T2 sequence (P12614 1-459): T1 sequence (P12614 1-459)
Protocol: Reaction of 33 with β-glucosidase from Agrobacterium in rat liver homogenate. A DMF solution of 33 (2 μL, 5 mM) and β-glucosidase from Agrobacterium in 10 mM phosphate buffer [2 μL, 10 μM, pH 7.0, containing 50 mM NaCl and 0.6 M (NH4)2SO4] were mixed with rat liver homogenate (96 μL). The reaction mixture was incubated at 37° C. for 4 h and then centrifuged for 3 min. Any precipitate was separated from the supernatant and then suspended in DMF (200 μL). The suspension was centrifuged for 3 min. The supernatant was analyzed by absorption spectroscopy.

[3] = system: β-glucosidase from almonds; assay: Indigogenic reaction with β-glucosidase from almonds; format: biochemical; conditions: as E1 but ε measured for 43 (footnote g)
[4] = target: T3, β-glucosidase from Agrobacterium (Agrobacterium sp., UniProt P12614); assay: Indigogenic reaction with β-glucosidase from Agrobacterium; format: biochemical; conditions: as E4 but ε measured for 43 (footnote g)
T3 construct: purchased Megazyme
T3 sequence (P12614 1-459): T1 sequence (P12614 1-459)
Protocol: Next, the β-glucosidase from Agrobacterium sp. was investigated as the trigger enzyme for indigoid dye formation. […] The reaction was carried out using the enzyme (200 nM) and indoxyl-glucoside 33 (100 μM) in phosphate buffer (pH 4-9, containing 2% DMF) at 37° C. […] Note that with 200 nM enzyme and 100 μM substrate, complete reaction requires 500 turnovers of each enzyme.
Reactions with β-glucosidase from Agrobacterium. An indoxyl compound in DMF (2 μL, 5 mM) and β-glucosidase from Agrobacterium in 10 mM phosphate buffer [2 μL, 10 μM, pH 7.0, containing 50 mM NaCl and 0.6 M (NH4)2SO4] were mixed with 50 mM phosphate buffer (96 μL, pH 7.0). The reaction mixture was incubated at 37° C. for 2 h and then centrifuged for 3 min. Any precipitate was separated from the supernatant and dissolved in DMF (200 μL). The resulting solution was analyzed by absorption spectroscopy. The experiment was repeated three times.

rat liver homogenate = assay: Indigoid-dye formation in rat liver homogenate; format: biochemical; conditions: as E7 but ε measured for 43 (footnote g)
Protocol: Finally, indigoid-dye formation was carried out in rat liver homogenate (Table 1, rightmost column).
Reactions in rat liver homogenate. An indoxyl compound in DMF (5 μL, 20 mM) was mixed with rat liver homogenate (95 μL). The reaction mixture was incubated at 37° C. for 24 h. After allowing to cool to room temperature, the reaction mixture was diluted with DMF (900 μL). The mixture was heated at 70° C. for 2 min and then centrifuged for 2 min. The supernatant was separated from any precipitate. This extraction procedure was repeated two or three times with DMF (100-500 μL). The combined supernatant (1500-1800 μL) was analyzed by absorption spectroscopy.

[5] = Solubility in aqueous buffer; format: physicochemical; conditions: 100 mM phosphate buffer (pH 7.4, containing 100 mM NaCl), room temperature
Text: Water solubility of the indoxyl glucoside is important for biological applications. […] Therefore, this compound is not suitable for bioconjugation. The synthesis of 34 relies on successive substitution of the dichloroanilinotriazine unit (derived from N,N-bis(2-methoxyethyl)aniline^31 and cyanuric chloride) with indoxyl-glucoside-PEG-OH and BCN-PEG-NH2 building blocks.
To improve the water solubility of the indoxyl species, a sulfobetaine unit^32,33 was incorporated as a water-solubilizing group. Sulfobetaines are stable zwitterions over a wide range of pH. Synthesis of an indoxyl bearing a sulfobetaine unit is illustrated in Scheme 6. Boc-piperazine (35) was treated with 1,3-propane sultone to afford 36 in 63% yield. Quaternization of the tertiary nitrogen atom in 36 with 3-bromopropanol gave Boc-protected sulfobetaine 37 in 69% yield. The Boc group was cleaved with trifluoroacetic acid (TFA) to afford piperazine-TFA salt 38 in 97% yield. The N-acetyl group of 32 was selectively deprotected with NaHCO3/MeOH in 84% yield. The product 39, piperazine-TFA salt 38, and BCN-amine 14 were assembled at a triazine ring via one-flask, successive substitution of cyanuric chloride to afford 40 in 51% yield. Cleavage of the acetyl groups of sulfobetaine 40 provided 41 in 98% yield.

[6] = 50 μM compound V (100 nmol), 200 nM β-glucosidase, 37° C., 300 min, MCA
[7] = 50 μM compound V (100 nmol), 200 nM β-glucosidase, 37° C., 300 min, absorption spectroscopy with MCA

With Cc1cc(=O)oc2cc(NCCNc3nc(NCCOCCOCCOCCOCCOCCN=[N+]=[N-])nc(OCCC[N+]4(CCCS(=O)(=O)[O-])CCN(c5nc(OCCOCCOCCOc6c(Br)cc7[nH]cc(O[C@@H]8O[C@H](CO)[C@@H](O)[C@H](O)[C@H]8O)c7c6Br)nc(OCCOCCOCCOc6c(Br)cc7[nH]cc(O[C@@H]8O[C@H](CO)[C@@H](O)[C@H](O)[C@H]8O)c7c6Br)n5)CC4)n3)ccc12 [Compound V, 2,4-Bis[1-(3-(β-D-glucopyranosyloxy)-4,6-dibromo-1H-indol-5-yl)-1,4,7,10-tetraoxadec-10-yl]-6-[4-(3-(2-(1-azido-3,6,9,12,15-pentaoxoheptadecylamino)-4-[2-((4-methyl-2H-chromen-2-one-7-yl)amino)ethylamino]-1,3,5-triazin-6-yloxy)propyl)-4-(3-sulfopropyl)piperazin-1-yl]-1,3,5-triazine] the “total amount of coumarin calculated by MCA” value ([1]; 100 nmol compound V added) was 62.7 nmol, the “coumarin in the precipitate” value [1, 6] was 51.6 nmol and the “coumarin in the supernatant” value [1, 6] was 11.1 nmol. For the same compound, the “indigoid dye in the precipitate” value [1, 7] was 2.8 nmol, the “indigoid dye in the supernatant” value [1, 7] was 0.3 nmol and the “total quantity of indigoid dye” value ([1]; precipitate plus supernatant, 100 nmol compound V added) was 3.1 nmol. The “yield of indigoid dye” value ([1]; total indigoid dye, 100 nmol compound V added) was 3.1%.

For OCCOCCOCCOc1c(Br)cc2[nH]cc(O[C@@H]3O[C@H](CO)[C@@H](O)[C@H](O)[C@H]3O)c2c1Br [compound 33, 4,6-Dibromo-5-[1-hydroxy-3,6,9-trioxanon-9-yl]-1H-indol-3-yl β-D-glucopyranoside], the “Yield (%) of indigoid dye, β-glucosidase from Agrobacterium plus rat liver homogenate” value [2] was 81% and 81 ± 5%, the “Yield (%) of indigoid dye, β-glucosidase from almonds” value [3] was 52% and 52^g % and the “Yield (%) of indigoid dye, β-glucosidase from Agrobacterium” value [4] was 99% and 99 ± 5^g %. For the same compound, the “Yield (%) of indigoid dye, rat liver homogenate” value (rat liver homogenate) was under 5%.

For O=C(NCCOCCOCCNc1nc(OCCOCCOCCOc2c(Br)cc3[nH]cc(OC4O[C@H](CO)[C@@H](O)[C@H](O)[C@H]4O)c3c2Br)nc(N2CC[N+](CCCO)(CCCS(=O)(=O)[O-])CC2)n1)OC[C@@H]1[C@@H]2CCC#CCC[C@@H]21 (stereo partly shown) [compound 41], the solubility [5] was over 400 µM and the “Yield (%) of indigoid dye, β-glucosidase from Agrobacterium” value [4] was 106% and 106 ± 4^g %.
